Measurements reported in ChEMBL document CHEMBL1129930, “Analogues of methotrexate in rheumatoid arthritis. 2. Effects of 5-deazaaminopterin, 5,10-dideazaaminopterin, and analogues on type II collagen-induced arthritis in mice” (J Med Chem, 1997).

Tests used:
[1] = Concentration required to inhibit the growth of chang liver cells.; assay type: functional; conditions: Homo sapiens
[2] = tested on: L1210; experiment: Concentration required to inhibit the growth of L1210 cells.; assay type: functional, cell-based; conditions: Mus musculus
[3] = tested on: Mus musculus; experiment: Incidence of disease (mouse type II collagen) was scored as the percentage of animals within each experimental group that exhibited joint or limb inflammation on day 37 at intraperitoneal dose of 12 mg/kg; assay type: functional
[4] = tested on: Mus musculus; experiment: Incidence of disease (mouse type II collagen) was scored as the percentage of animals within each experimental group that exhibited joint or limb inflammation on day 37 at intraperitoneal dose of 3 mg/kg; assay type: functional
[5] = tested on: Mus musculus; experiment: Incidence of disease (mouse type II collagen) was scored as the percentage of animals within each experimental group that exhibited joint or limb inflammation on day 23 at intraperitoneal dose of 12 mg/kg; assay type: functional
[6] = tested on: Mus musculus; experiment: Incidence of disease (mouse type II collagen) was scored as the percentage of animals within each experimental group that exhibited joint or limb inflammation on day 23 at intraperitoneal dose of 3 mg/kg; assay type: functional
[7] = tested on: Mus musculus; experiment: Incidence of disease (mouse type II collagen) was scored as the percentage of animals within each experimental group that exhibited joint or limb inflammation on day 23 at intraperitoneal dose of 6 mg/kg; assay type: functional
[8] = tested on: Mus musculus; experiment: Incidence of disease (mouse type II collagen) was scored as the percentage of animals within each experimental group that exhibited joint or limb inflammation on day 44 at intraperitoneal dose of 12 mg/kg; assay type: functional
[9] = tested on: Mus musculus; experiment: Incidence of disease (mouse type II collagen) was scored as the percentage of animals within each experimental group that exhibited joint or limb inflammation on day 44 at intraperitoneal dose of 3 mg/kg; assay type: functional
[10] = tested on: Mus musculus; experiment: Incidence of disease (mouse type II collagen) was scored as the percentage of animals within each experimental group that exhibited joint or limb inflammation on day 44 at intraperitoneal dose of 6 mg/kg; assay type: functional
[11] = tested on: Mus musculus; experiment: Incidence of disease (mouse type II collagen) was scored as the percentage of animals within each experimental group that exhibited joint or limb inflammation on day 30 at intraperitoneal dose of 12 mg/kg; assay type: functional
[12] = tested on: Mus musculus; experiment: Incidence of disease (mouse type II collagen) was scored as the percentage of animals within each experimental group that exhibited joint or limb inflammation on day 30 at intraperitoneal dose of 3 mg/kg; assay type: functional
[13] = tested on: Mus musculus; experiment: Incidence of disease (mouse type II collagen) was scored as the percentage of animals within each experimental group that exhibited joint or limb inflammation on day 30 at intraperitoneal dose of 6 mg/kg; assay type: functional
[14] = tested on: Mus musculus; experiment: Incidence of disease (mouse type II collagen) was scored as the percentage of animals within each experimental group that exhibited joint or limb inflammation on day 37 at intraperitoneal dose of 6 mg/kg; assay type: functional
[15] = tested on: Mus musculus; experiment: Tested for antiinflammatory activity on mouse type II collagen arthritis as Paw swelling of all animals in each group on day 30 at intraperitoneal dose of 12 mg/kg; assay type: functional
[16] = tested on: Mus musculus; experiment: Tested for antiinflammatory activity on mouse type II collagen arthritis as Paw swelling of all animals in each group on day 30 at intraperitoneal dose of 3 mg/kg; assay type: functional
[17] = tested on: Mus musculus; experiment: Tested for antiinflammatory activity on mouse type II collagen arthritis as Paw swelling of all animals in each group on day 30 at intraperitoneal dose of 6 mg/kg; assay type: functional
[18] = tested on: Mus musculus; experiment: Tested for antiinflammatory activity on mouse type II collagen arthritis as Paw swelling of all animals in each group on day 23 at intraperitoneal dose of 12 mg/kg; assay type: functional
[19] = tested on: Mus musculus; experiment: Tested for antiinflammatory activity on mouse type II collagen arthritis as Paw swelling of all animals in each group on day 23 at intraperitoneal dose of 3 mg/kg; assay type: functional
[20] = tested on: Mus musculus; experiment: Tested for antiinflammatory activity on mouse type II collagen arthritis as Paw swelling of all animals in each group on day 23 at intraperitoneal dose of 6 mg/kg; assay type: functional
[21] = tested on: Mus musculus; experiment: Tested for antiinflammatory activity on mouse type II collagen arthritis as Paw swelling of all animals in each group on day 44 at intraperitoneal dose of 12 mg/kg; assay type: functional
[22] = tested on: Mus musculus; experiment: Tested for antiinflammatory activity on mouse type II collagen arthritis as Paw swelling of all animals in each group on day 44 at intraperitoneal dose of 3 mg/kg; assay type: functional
[23] = tested on: Mus musculus; experiment: Tested for antiinflammatory activity on mouse type II collagen arthritis as Paw swelling of all animals in each group on day 37 at intraperitoneal dose of 3 mg/kg; assay type: functional
[24] = tested on: Mus musculus; experiment: Tested for antiinflammatory activity on mouse type II collagen arthritis as Paw swelling of all animals in each group on day 37 at intraperitoneal dose of 6 mg/kg; assay type: functional
[25] = tested on: Mus musculus; experiment: Tested for antiinflammatory activity on mouse type II collagen arthritis as Paw swelling of all animals in each group on day 37 at intraperitoneal dose of 12 mg/kg; assay type: functional
[26] = tested on: Mus musculus; experiment: Tested for antiinflammatory activity on mouse type II collagen arthritis as Paw swelling of all animals in each group on day 44 at intraperitoneal dose of 6 mg/kg; assay type: functional
[27] = tested on: Mus musculus; experiment: Incidence of disease (mouse type II collagen) was scored as the percentage of animals within each experimental group that exhibited joint or limb inflammation on day 37 at intraperitoneal dose of 10 mg/kg; assay type: functional
[28] = tested on: Mus musculus; experiment: Incidence of disease (mouse type II collagen) was scored as the percentage of animals within each experimental group that exhibited joint or limb inflammation on day 23 at intraperitoneal dose of 10 mg/kg; assay type: functional
[29] = tested on: Mus musculus; experiment: Incidence of disease (mouse type II collagen) was scored as the percentage of animals within each experimental group that exhibited joint or limb inflammation on day 44 at intraperitoneal dose of 10 mg/kg; assay type: functional
[30] = tested on: Mus musculus; experiment: Incidence of disease (mouse type II collagen) was scored as the percentage of animals within each experimental group that exhibited joint or limb inflammation on day 30 at intraperitoneal dose of 10 mg/kg; assay type: functional
[31] = tested on: Mus musculus; experiment: Tested for antiinflammatory activity on mouse type II collagen arthritis as Paw swelling of all animals in each group on day 30 at intraperitoneal dose of 10 mg/kg; assay type: functional
[32] = tested on: Mus musculus; experiment: Tested for antiinflammatory activity on mouse type II collagen arthritis as Paw swelling of all animals in each group on day 23 at intraperitoneal dose of 10 mg/kg; assay type: functional
[33] = tested on: Mus musculus; experiment: Tested for antiinflammatory activity on mouse type II collagen arthritis as Paw swelling of all animals in each group on day 44 at intraperitoneal dose of 10 mg/kg; assay type: functional
[34] = tested on: Mus musculus; experiment: Tested for antiinflammatory activity on mouse type II collagen arthritis as Paw swelling of all animals in each group on day 37 at intraperitoneal dose of 10 mg/kg; assay type: functional

IC50 [2] [nM] | Compound | IC50 [1] [nM] | Animals [3] [%] | Animals [4] [%] | Animals [5] [%] | Animals [6] [%] | Animals [7] [%] | Animals [8] [%] | Animals [9] [%] | Animals [10] [%] | Animals [11] [%] | Animals [12] [%] | Animals [13] [%] | Animals [14] [%] | Paw swelling [15] [mm] | Paw swelling [16] [mm] | Paw swelling [17] [mm] | Paw swelling [18] [mm] | Paw swelling [19] [mm] | Paw swelling [20] [mm] | also measured
379 | Cc1c(CCc2ccc(C(=O)NC(CCC(=O)O)C(=O)O)cc2)cnc2nc(N)nc(N)c12 (stereo unspecified) | 334 | 88 | 100 | 50 | 25 | 38 | 100 | 100 | 100 | 75 | 100 | 100 | 100 | 2.71 | 2.73 | 2.77 | 2.32 | 2.21 | 2.3 | Paw swelling [21]: 2.85 mm; Paw swelling [22]: 3.12 mm; Paw swelling [23]: 3.09 mm; Paw swelling [24]: 2.81 mm; Paw swelling [25]: 3.01 mm; Paw swelling [26]: 2.97 mm
7.5 | CC(Cc1cnc2nc(N)nc(N)c2c1)c1ccc(C(=O)NC(CCC(=O)O)C(=O)O)cc1 (stereo unspecified) | 78 |  |  |  |  |  |  |  |  |  |  |  |  |  |  |  |  |  |  | Animals [27]: 20%; Animals [28]: 20%; Animals [29]: 20%; Animals [30]: 0%; Paw swelling [31]: 2.23 mm; Paw swelling [32]: 2.24 mm; Paw swelling [33]: 2.24 mm; Paw swelling [34]: 2.22 mm
9 | C=CCC(Cc1cnc2nc(N)nc(N)c2c1C)c1ccc(C(=O)NC(CCC(=O)O)C(=O)O)cc1 (stereo unspecified) | 11 | 75 | 88 | 50 | 25 | 0 | 100 | 88 | 100 | 38 | 38 | 25 | 62 | 2.24 | 2.24 | 2.21 | 2.25 | 2.2 | 2.15 | Paw swelling [21]: 3.15 mm; Paw swelling [22]: 2.99 mm; Paw swelling [23]: 2.99 mm; Paw swelling [24]: 2.66 mm; Paw swelling [25]: 2.69 mm; Paw swelling [26]: 3.01 mm
 | C#CCN(Cc1cnc2nc(N)nc(N)c2c1CC)c1ccc(C(=O)NC(CCC(=O)O)C(=O)O)cc1 (stereo unspecified) |  | 25 | 25 | 12 | 0 | 0 | 25 | 25 | 25 | 12 | 12 | 12 | 25 | 2.2 | 2.16 | 2.16 | 2.22 | 2.13 | 2.17 | Paw swelling [21]: 2.2 mm; Paw swelling [22]: 2.39 mm; Paw swelling [23]: 2.24 mm; Paw swelling [24]: 2.21 mm; Paw swelling [25]: 2.23 mm; Paw swelling [26]: 2.2 mm
